Assay results from patent US8133911B2, “(R)-4-(heteroaryl) phenylethyl derivatives and pharmaceutical compositions containing them” (Dompe S.p.A, priority 2007, dated 2012).
Read-outs that look alike come from different tables or passages of the source.

Test system: PMNs C5a induced chemotaxis
Assay: Inhibition of C5a-induced chemotaxis of human PMNs
Format: cell-based
Settings: 1 h, read-out: C5a (% inhibition at 10^−8 M)
Protocol: The compounds prepared in Example 2 were evaluated in vitro for their ability to inhibit chemotaxis of polymorphonucleate leukocytes (hereinafter referred to as PMNs) and monocytes induced by the fractions of the complement C5a and C5a-desArg. For this purpose, to isolate the PMNs from heparinized human blood, taken from healthy adult volunteers, mononucleates were removed by means of sedimentation on dextran (according to the procedure disclosed by W. J. Ming et al., J. Immunol., 138, 1469, 1987) and red blood cells by a hypotonic solution. The cell vitality was calculated by exclusion with Trypan blue, whilst the ratio of the circulating polymorphonucleates was estimated on the cytocentrifugate after staining with Diff Quick.
Human recombinant fractions C5a and C5a-desArg (Sigma) were used as stimulating agents in the chemotaxis experiments, giving practically identical results.
The lyophilized C5a was dissolved in a volume of HBSS containing 0.2% bovin serum albumin BSA so thus to obtain a stock solution having a concentration of 10^−5 M to be diluted in HBSS to a concentration of 10^−9 M, for the chemotaxis assays.
In the chemotaxis experiments, the PMNs were incubated with the compounds of the invention of formula (I) for 15′ at 37° C. in an atmosphere containing 5% CO2. The chemotactic activity of the C5a was evaluated on human circulating polymorphonucleates (PMNs) resuspended in HBSS at a concentration of 1.5×10^6 PMNs per ml. During the chemotaxis assay (according to W. Falket et al., J. Immunol. Methods, 33, 239, 1980) PVP-free filters with a porosity of 5 μm and microchambers suitable for replication were used.
The compounds of Example 2 were evaluated at a concentration ranging between 10^−7 and 10^−10 M; for this purpose they were added, at the same concentration, both to the lower pores and the upper pores of the microchamber. The wells in the lower part contain the solution of C5a or the simple carrier, those in the upper part contain the suspension of PMNs.
Inhibition of C5a-induced chemotactic activity by the individual compounds was evaluated by incubating the microchamber for the chemotaxis for 60 min at 37° C. in an atmosphere containing 5% CO2.

[1] = compound 10^−8 M, human PMNs, C5a 10^−9 M, 60 min at 37° C.

SMILES	inhibition at 0.01 µM [1] [%]	inhibition at 0.01 µM (Homo sapiens) [%]
C[C@H](c1ccc(Nc2nc(C(F)(F)F)cs2)cc1)c1nnn[nH]1 [Compound 1, N-{4-[(1R)-1-(1H-tetrazol-5-yl)ethyl]phenyl}-4-(trifluoromethyl)-1,3-thiazol-2-amine]	60 ± 1	–
Cc1csc(Nc2ccc([C@@H](C)c3nnn[nH]3)cc2)n1 [Compound 2, 4-methyl-N-{4-[(1R)-1-(1H-tetrazol-5-yl)ethyl]phenyl}-1,3-thiazol-2-amine]	45 ± 3	–
C[C@H](c1ccc(Nc2nc(C(C)(C)C)cs2)cc1)c1nnn[nH]1 [Compound 3, 4-tert-butyl-N-{4-[(1R)-1-(1H-tetrazol-5-yl)ethyl]phenyl}-1,3-thiazol-2-amine]	42 ± 8	–
C[C@H](c1ccc(Nc2nccs2)cc1)c1nnn[nH]1 [Compound 4, N-{4-[(1R)-1-(1H-tetrazol-5-yl)ethyl]phenyl}-1,3-thiazol-2-amine]	39 ± 3	–
C[C@H](c1ccc(Nc2nc(C(F)(F)F)co2)cc1)c1nnn[nH]1 [Compound 5, N-{4-[(1R)-1-(1H-tetrazol-5-yl)ethyl]phenyl}-4-(trifluoromethyl)-1,3-oxazol-2-amine]	55 ± 1	–
Cc1coc(Nc2ccc([C@@H](C)c3nnn[nH]3)cc2)n1 [Compound 6, 4-methyl-N-{4-[(1R)-1-(1H-tetrazol-5-yl)ethyl]phenyl}-1,3-oxazol-2-amine]	51 ± 7	–
C[C@H](c1ccc(Nc2nc(C(F)(F)F)cs2)cc1)c1ccnn1O [Compound 7, 5-[(1R)-1-(4-{[4-(trifluoromethyl)-1,3-thiazol-2-yl]amino}phenyl)ethyl]-1H-pyrazol-1-ol]	38 ± 6	–
Cc1cnn(O)c1[C@H](C)c1ccc(Nc2nc(C(F)(F)F)cs2)cc1 [Compound 8, 4-methyl-5-[(1R)-1-(4-{[4-(trifluoromethyl)-1,3-thiazol-2-yl]amino}phenyl)ethyl]-1H-pyrazol-1-ol]	48 ± 5	–
C[C@H](c1ccc(Nc2nc(C(F)(F)F)cs2)cc1)c1cnnn1O [Compound 9, 5-[(1R)-1-(4-{[4-(trifluoromethyl)-1,3-thiazol-2-yl]amino}phenyl)ethyl]-1H-1,2,3-triazol-1-ol]	44 ± 1	–
C[C@H](c1ccc(Nc2nc(C(F)(F)F)cs2)cc1)c1cc(O)no1 [Compound 10, 5-[(1R)-1-(4-{[4-(trifluoromethyl)-1,3-thiazol-2-yl]amino}phenyl)ethyl]isoxazol-3-ol]	56 ± 1	–
Cc1c(O)noc1[C@H](C)c1ccc(Nc2nc(C(F)(F)F)cs2)cc1 [Compound 11, 4-methyl-5-[(1R)-1-(4-{[4-(trifluoromethyl)-1,3-thiazol-2-yl]amino}phenyl)ethyl]isoxazol-3-ol]	–	45 ± 4
C[C@H](c1ccc(Nc2nc(C(F)(F)F)cs2)cc1)c1cc(O)ns1 [Compound 12, 5-[(1R)-1-(4-{[4-(trifluoromethyl)-1,3-thiazol-2-yl]amino}phenyl)ethyl]isothiazol-3-ol]	45 ± 3	–
C[C@H](c1ccc(Nc2nc(C(F)(F)F)cs2)cc1)c1nonc1O [Compound 13, 4-[(1R)-1-(4-{[4-(trifluoromethyl)-1,3-thiazol-2-yl]amino}phenyl)ethyl]-1,2,5-oxadiazol-3-ol]	51 ± 4	–
C[C@H](c1ccc(Nc2nc(C(F)(F)F)cs2)cc1)c1nsnc1O [Compound 14, 4-[(1R)-1-(4-{[4-(trifluoromethyl)-1,3-thiazol-2-yl]amino}phenyl)ethyl]-1,2,5-thiadiazol-3-ol]	60 ± 9	–
C[C@H](c1ccc(Nc2nc(C(F)(F)F)cs2)cc1)c1ncnn1O [Compound 15, 5-[(1R)-1-(4-{[4-(trifluoromethyl)-1,3-thiazol-2-yl]amino}phenyl)ethyl]-1H-1,2,4-triazol-1-ol]	43 ± 1	–
